One assay addresses T1, human TLR7 (Homo sapiens, UniProt Q9NYK1).
T1 construct: host or cells: HEK-Blue cells
T1 sequence (Q9NYK1 27-1049): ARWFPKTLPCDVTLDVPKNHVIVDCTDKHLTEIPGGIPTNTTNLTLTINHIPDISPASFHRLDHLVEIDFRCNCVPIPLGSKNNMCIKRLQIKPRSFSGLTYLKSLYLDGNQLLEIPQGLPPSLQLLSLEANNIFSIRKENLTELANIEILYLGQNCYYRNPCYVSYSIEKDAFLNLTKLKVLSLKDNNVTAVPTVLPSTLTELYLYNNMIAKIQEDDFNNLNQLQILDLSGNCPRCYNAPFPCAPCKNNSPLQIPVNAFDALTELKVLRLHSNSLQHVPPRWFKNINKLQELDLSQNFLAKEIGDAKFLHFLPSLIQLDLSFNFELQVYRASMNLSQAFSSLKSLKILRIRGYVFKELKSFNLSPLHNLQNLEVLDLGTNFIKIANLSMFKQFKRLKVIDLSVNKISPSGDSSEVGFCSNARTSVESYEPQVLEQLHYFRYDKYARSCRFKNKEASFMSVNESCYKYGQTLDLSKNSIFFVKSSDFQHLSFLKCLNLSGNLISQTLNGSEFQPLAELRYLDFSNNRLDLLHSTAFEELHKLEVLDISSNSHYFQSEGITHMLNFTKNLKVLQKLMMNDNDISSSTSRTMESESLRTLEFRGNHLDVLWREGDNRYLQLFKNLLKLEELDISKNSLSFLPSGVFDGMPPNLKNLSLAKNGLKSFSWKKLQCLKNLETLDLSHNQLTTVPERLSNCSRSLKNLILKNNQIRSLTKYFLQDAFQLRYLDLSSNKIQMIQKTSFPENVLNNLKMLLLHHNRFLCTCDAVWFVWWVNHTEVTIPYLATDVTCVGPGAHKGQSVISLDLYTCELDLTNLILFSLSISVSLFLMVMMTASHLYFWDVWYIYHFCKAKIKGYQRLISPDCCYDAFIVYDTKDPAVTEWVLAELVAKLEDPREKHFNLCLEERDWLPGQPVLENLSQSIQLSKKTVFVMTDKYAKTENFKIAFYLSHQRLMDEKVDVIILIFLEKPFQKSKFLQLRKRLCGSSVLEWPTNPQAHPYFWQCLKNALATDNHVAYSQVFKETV
In words: TLR7 inhibition reporter assay (HEK-Blue SEAP). It is filed as cell-based. Particulars: HEK-Blue cells overexpressing human TLR7, gardiquimod 7.5 μM, 22 hour incubation. A digest of the protocol: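 In this cell reporter format, test compounds at 0.05 nM-50 μM final incubate 22 h with seeded cells (TLR7 15000, TLR8 20,000 per well). SEAP read-out by HEK-Blue Detection medium yields % inhibition relative to agonist/DMSO and known-inhibitor wells.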
For orientation: A reporter such as luciferase makes a cellular process visible.

The target in the next assay is T2, human TLR9 (Homo sapiens, UniProt Q9NR96).
T2 construct: host or cells: HEK-Blue cells
T2 sequence (Q9NR96 26-1032): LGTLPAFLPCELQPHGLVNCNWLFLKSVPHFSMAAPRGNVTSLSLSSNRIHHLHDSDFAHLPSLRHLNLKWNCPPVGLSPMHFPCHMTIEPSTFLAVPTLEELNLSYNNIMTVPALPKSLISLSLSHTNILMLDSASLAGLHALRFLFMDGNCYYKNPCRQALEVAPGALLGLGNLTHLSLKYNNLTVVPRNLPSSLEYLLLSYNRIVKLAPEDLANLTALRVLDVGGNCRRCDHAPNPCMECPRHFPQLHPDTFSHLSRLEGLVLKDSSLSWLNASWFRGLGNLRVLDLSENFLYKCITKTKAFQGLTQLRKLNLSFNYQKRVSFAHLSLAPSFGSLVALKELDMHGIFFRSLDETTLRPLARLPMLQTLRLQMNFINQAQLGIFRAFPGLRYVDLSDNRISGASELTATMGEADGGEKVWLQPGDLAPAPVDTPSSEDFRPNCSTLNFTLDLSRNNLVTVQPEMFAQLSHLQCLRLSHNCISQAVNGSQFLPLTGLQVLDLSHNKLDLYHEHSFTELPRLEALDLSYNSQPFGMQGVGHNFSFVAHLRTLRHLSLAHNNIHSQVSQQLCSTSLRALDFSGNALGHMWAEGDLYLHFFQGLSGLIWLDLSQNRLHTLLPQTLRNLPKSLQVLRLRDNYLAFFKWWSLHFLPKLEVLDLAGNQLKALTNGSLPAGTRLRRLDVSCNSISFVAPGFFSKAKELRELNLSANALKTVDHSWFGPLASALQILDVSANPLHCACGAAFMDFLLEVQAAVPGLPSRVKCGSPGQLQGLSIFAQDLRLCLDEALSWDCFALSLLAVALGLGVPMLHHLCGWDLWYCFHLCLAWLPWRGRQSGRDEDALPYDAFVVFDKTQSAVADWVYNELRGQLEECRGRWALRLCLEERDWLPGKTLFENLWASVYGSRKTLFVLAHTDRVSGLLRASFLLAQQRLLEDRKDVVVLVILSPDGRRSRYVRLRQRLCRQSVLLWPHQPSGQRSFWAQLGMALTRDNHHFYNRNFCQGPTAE
In words: TLR9 inhibition reporter assay (HEK-Blue SEAP). It is filed as cell-based. Particulars: HEK-Blue cells overexpressing human TLR9, ODN2006 5 nM, 22 hour incubation. A digest of the protocol:
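Dose–response from 0.05 nM to 50 μM was run in HEK-Blue human TLR7, TLR8 and TLR9 reporter cells. After 30 min at room temperature with compound, ligand was added (TLR7 gardiquimod 7.5 μM; TLR8 R848 15.9 μM; TLR9 ODN2006 5 nM) and SEAP measured next day, at 22 h.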

Our source for the IC50 values is patent publication US12187723B2 (BRISTOL-MYERS SQUIBB COMPANY, priority 2019, dated 2025).

Structures can show the parent of a compound that is named as a salt. Where only a bound is given, the exact number is not on record here.

A word on the IC50: it is the concentration that inhibits the measured activity by half. In the case of `Cc1c(-c2cc3[nH]c(=O)n(C4CCC(N5CCC(F)(F)CC5)CC4)c3cc2C(C)C)cn2ncnc2c1C` (single isomer, unassigned) [Example 276, 1-(4-(4,4-difluoropiperidin-1-yl)cyclohexyl)-5-(7,8-dimethyl-[1,2,4]triazolo[1,5-a]pyridin-6-yl)-6-isopropyl-1,3-dihydro-2H-benzo[d]imidazol-2-one], the values for the IC50 against human TLR7 and at human TLR9 were 61.7 nM and 15300 nM, respectively.
For `COc1c(C)c(-c2cc3[nH]c(=O)n(C4CCC(N5CC(OC)C5)CC4)c3cc2C(C)C)cn2ncnc12` (stereo not shown) [Example 266, 6-isopropyl-5-(8-methoxy-7-methyl-[1,2,4]triazolo[1,5-a]pyridin-6-yl)-1-(4-(3-methoxyazetidin-1-yl)cyclohexyl)-1,3-dihydro-2H-benzo[d]imidazol-2-one], in that order: 13.4 nM and 23000 nM.
Consider `COc1cc(-c2cc3[nH]c(=O)n([C@@H]4CCCNC4)c3cc2C(F)(F)F)cn2ncnc12` [110 F, (R)-5-(8-methoxy-[1,2,4]triazolo[1,5-a]pyridin-6-yl)-1-(piperidin-3-yl)-6-(trifluoromethyl)-1,3-dihydro-2H-benzo[d]imidazol-2-one], for which the results for the IC50 against human TLR7 and on human TLR9 were 28.2 nM and 2710 nM, respectively.
Take `COc1cc(-c2cc3[nH]c(=O)n(C4CCC(N5CCC(F)(F)CC5)CC4)c3cc2C(C)C)cn2ncnc12` (single isomer, unassigned) [Example 247, 1-(4-(4,4-difluoropiperidin-1-yl)cyclohexyl)-6-isopropyl-5-(8-methoxy-[1,2,4]triazolo[1,5-a]pyridin-6-yl)-1,3-dihydro-2H-benzo[d]imidazol-2-one]: the IC50 at human TLR7 came to 30.2 nM; against human TLR9, 14900 nM.
For `Cc1cc2c(cc1-c1cc(C)c3ncnn3c1)[nH]c(=O)n2[C@@H]1CCCNC1` [1 ED, (R)-6-methyl-5-(8-methyl-[1,2,4]triazolo[1,5-a]pyridin-6-yl)-1-(piperidin-3-yl)-1,3-dihydro-2H-benzo[d]imidazol-2-one], in that order: 18.1 nM and 524 nM.
Take `COC[C@@H]1CCN(C2CCC(n3c(=O)[nH]c4cc(-c5cc(OC)c6ncnn6c5)c(C(C)C)cc43)CC2)C1` (single isomer, unassigned) [Example 291]: the IC50 against human TLR7 is 1.71 nM; against human TLR9, 12300 nM.
For `COC1CN(C2CCC(n3c(=O)[nH]c4cc(-c5cn6ncnc6c(C)c5C)c(C(C)C)cc43)CC2)C1` (single isomer, unassigned) [Example 278, 5-(7,8-dimethyl-[1,2,4]triazolo[1,5-a]pyridin-6-yl)-6-isopropyl-1-(4-(3-methoxyazetidin-1-yl)cyclohexyl)-1,3-dihydro-2H-benzo[d]imidazol-2-one], in that order: 7.88 nM and 15200 nM.
For the compound `COc1c(C)c(-c2cc3[nH]c(=O)n(C4CCC(N5CCC6(CC5)COC6)CC4)c3cc2C(C)C)cn2ncnc12` (single isomer, unassigned) [Example 268, 1-(4-(2-oxa-7-azaspiro[3.5]nonan-7-yl)cyclohexyl)-6-isopropyl-5-(8-methoxy-7-methyl-[1,2,4]triazolo[1,5-a]pyridin-6-yl)-1,3-dihydro-2H-benzo[d]imidazol-2-one], the IC50 amounted to 15.8 nM against human TLR7 and 17400 nM at human TLR9.
Turning to `COc1cc(-c2cc3[nH]c(=O)n(C4CCC(N5C[C@@H](F)[C@@H](F)C5)CC4)c3cc2C(C)C)cn2ncnc12` (single isomer, unassigned) [Example 292], the figures for the IC50 against human TLR7 and against human TLR9 were 2.21 nM and 28900 nM, respectively.
For `COc1cc(-c2cc3[nH]c(=O)n(C4CCNCC4)c3cc2C)cn2ncnc12` [1 E, 5-(8-methoxy-[1,2,4]triazolo[1,5-a]pyridin-6-yl)-6-methyl-1-(piperidin-4-yl)-1H-benzo[d]imidazol-2(3H)-one, TFA], in that order: 366 nM and 2640 nM.
For `Cc1cc2c(cc1-c1cc(C)c3ncnn3c1)[nH]c(=O)n2[C@@H]1CCCN(C2CCOCC2)C1` [Example 27, (R)-6-methyl-5-(8-methyl-[1,2,4]triazolo[1,5-a]pyridin-6-yl)-1-(1-(tetrahydro-2H-pyran-4-yl)piperidin-3-yl)-1,3-dihydro-2H-benzo[d]imidazol-2-one], in that order: 79.5 nM and 8500 nM.
Turning to `Cc1c(-c2cc3[nH]c(=O)n(C4CCC(N5CC(F)C5)CC4)c3cc2C(C)C)cn2ncnc2c1C` (stereo not shown) [Example 280, 5-(7,8-dimethyl-[1,2,4]triazolo[1,5-a]pyridin-6-yl)-1-(4-(3-fluoroazetidin-1-yl)cyclohexyl)-6-isopropyl-1,3-dihydro-2H-benzo[d]imidazol-2-one], the IC50 against human TLR7 was determined as 4.91 nM; against human TLR9 it was 20600 nM.
For `COCCNC1CCC(n2c(=O)[nH]c3cc(-c4cn5ncnc5c(OC)c4C)c(C(C)C)cc32)CC1` (stereo not shown) [Example 257], in that order: 6.97 nM and 23300 nM.
For `Cc1c(-c2cc3[nH]c(=O)n(C4CCC(N5CCC6(CC5)COC6)CC4)c3cc2C(C)C)cn2ncnc2c1C` (single isomer, unassigned) [Example 282, 1-(4-(2-oxa-7-azaspiro[3.5]nonan-7-yl)cyclohexyl)-5-(7,8-dimethyl-[1,2,4]triazolo[1,5-a]pyridin-6-yl)-6-isopropyl-1,3-dihydro-2H-benzo[d]imidazol-2-one], in that order: 10.1 nM and 14400 nM.
For `COc1cc(-c2cc3[nH]c(=O)n(C4CCC(N5CCC(F)(F)C5)CC4)c3cc2C(C)C)cn2ncnc12` (single isomer, unassigned) [Example 295, 1-(4-(3,3-difluoropyrrolidin-1-yl)cyclohexyl)-6-isopropyl-5-(8-methoxy-[1,2,4]triazolo[1,5-a]pyridin-6-yl)-1,3-dihydro-2H-benzo[d]imidazol-2-one], in that order: 41.8 nM and 22200 nM.
Take `COc1cc(-c2cc3[nH]c(=O)n(C4CCC(N5C6CCC5COC6)CC4)c3cc2C(C)C)cn2ncnc12` (single isomer, unassigned) [Example 252, 1-(4-(3-oxa-8-azabicyclo[3.2.1]octan-8-yl)cyclohexyl)-6-isopropyl-5-(8-methoxy-[1,2,4]triazolo[1,5-a]pyridin-6-yl)-1,3-dihydro-2H-benzo[d]imidazol-2-one]: the results for the IC50 against human TLR7 and against human TLR9 were 40.5 nM and greater than 50000 nM, respectively.
For `COCCNC1CCC(n2c(=O)[nH]c3cc(-c4cn5ncnc5c(OC)c4C)c(C(C)C)cc32)CC1` (stereo not shown) [Example 258], in that order: 4.25 nM and 24300 nM.
